Tests used:
[1] = system: Phakopsora pachyrhizi (the causal agent of Asian soybean rust); test: Test A: preventive spray on soybean seedlings, visual disease rating (100 = 100% control; * 50 ppm, ** 10 ppm, *** 250 ppm); type: in vivo; settings: 100 = 100% disease control
How it was run: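 Soybean seedlings sprayed to run-off with compound suspended in acetone/water with 250 ppm PEG400 surfactant, inoculated next day with P. pachyrhizi spores. Kept 24 h saturated at 22 °C, then 8 days at 22 °C before visual rating of disease control (0-100) relative to controls.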

[2] = system: Puccinia recondita f. sp. tritici (the causal agent of wheat leaf rust); test: Test B: preventive spray on wheat seedlings, disease rating (100 = 100% control; * 50 ppm, ** 10 ppm, *** 250 ppm); type: in vivo; settings: 100 = 100% disease control
How it was run: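 Wheat seedlings sprayed to run-off with compound in acetone/water (50/50) containing 250 ppm PEG400, inoculated next day with Puccinia recondita f. sp. tritici spores. Held 24 h saturated at 20° C, then 6 days at 20° C; disease control rated 0–100 relative to controls.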

[3] = 10 ppm test suspension, soybean seedlings
[4] = 10 ppm test suspension, wheat seedlings
[5] = 50 ppm test suspension, soybean seedlings
[6] = 50 ppm test suspension, wheat seedlings
[7] = 50 ppm test suspension, 0 = no control
[8] = 10 ppm test suspension, 0 = no control

Compound | Test A disease control rating [1, 3] [%] | Test B disease control rating [2, 4] [%] | also measured
CCO/C(=C\Oc1ccc(CN2CCCC2=O)cc1)C(F)(F)F [compound 224] | 0 | 0 | 
CCO/C(=C\Oc1ccc(Cn2cc(C(=O)NCC#N)cn2)cc1)C(F)(F)F [compound 107] | 0 | 0 | 
CCOC(=COc1ccc(Cn2ccc(C(=O)OC)n2)cc1)C(F)(F)F [compound 251] | 100 | 9 | 
O=S(=O)(NCc1ccc(OCC2(C(F)(F)F)OCCO2)cc1)C(F)(F)F [compound 207] | 0 | 0 | 
CCOC(=O)C=CCOc1ccc(OCC(O)(O)C(F)(F)F)cc1 [compound 97] |  |  | Test A disease control rating [1, 5]: 94%; Test B disease control rating [2, 6]: 0%
OCc1ccc(OCC2(C(F)(F)F)OCCO2)cc1 [compound 178] | 0 | 0 | 
FC(F)(F)C1(COc2ccc(CNC(=S)NC3CCCCC3)cc2)OCCO1 [compound 77] | 99 | 0 | 
CCOC(=O)c1cnn(Cc2ccc(OCC3(C(F)(F)F)OC(=O)CS3)cc2)c1 (stereo not shown) [compound 20] | 98 | 86 | 
CCO/C(=C\Oc1ccc(CNC(=O)C(C)OC)cc1)C(F)(F)F (stereo not shown) [compound 114] |  |  | Test A disease control rating [1, 5]: 44%; Test B disease control rating [2, 6]: 0%
CCO/C(=C\Oc1ccc(-c2noc(C(F)(F)F)n2)cc1)C(F)(F)F [compound 143] | 0 | 0 | 
CCOC(=COc1ccc(Cc2ccnc(OCC[Si](C)(C)C)n2)cc1)C(F)(F)F [compound 313] |  |  | Test A disease control rating [1, 7]: 0%; Test B disease control rating [2, 7]: 0%
CCOC(=COc1ccc(NC(=O)C2CC2)cc1)C(F)(F)F [compound 371] |  |  | Test A disease control rating [1, 7]: 0%; Test B disease control rating [2, 7]: 77%
CCOC(=O)c1ccnn1Cc1ccc(OC=C(OCC)C(F)(F)F)cc1 [compound 241] | 0 | 0 | 
CCOC(=COc1ccc(Cn2ccc(C(F)(F)F)n2)cc1)C(F)(F)F [compound 181] | 0 | 0 | 
O=C(CC(F)(F)F)NCc1ccc(OCC2(C(F)(F)F)OCCO2)cc1 [compound 212] | 44 | 0 | 
O=C(NCC(F)(F)F)c1cnc(Cc2ccc(OCC(O)(O)C(F)(F)F)cc2)o1 [compound 274] |  |  | Test A disease control rating [1, 8]: 48%; Test B disease control rating [2, 8]: 0%
CCOC(=O)c1nccn1Cc1cccc(O/C=C(\OCC)C(F)(F)F)c1 [compound 367] |  |  | pest or weed control at 10 ppm ([1]; Phakopsora pachyrhizi, 10 ppm test suspension, 0 = no control): 0%; pest or weed control at 10 ppm ([2]; Puccinia recondita, 10 ppm test suspension, 0 = no control): 0%
CCO/C(=C\Oc1ccc(Cn2cncn2)cc1)C(F)(F)F [compound 157] | 0 | 9 | 
O=C(NCC(F)(F)F)c1csc(Cc2ccc(OCC(O)(O)C(F)(F)F)cc2)n1 [Compound 68] | 100 | 95 | 

Compound | Test A disease control rating [1, 3] [%] | Test B disease control rating [2, 4] [%] | also measured
CCOC(=O)c1cn(Cc2ccc(O/C=C(\OCC)C(F)(F)F)cc2)cn1 [compound 153] | 100 | 0 | 
O=C(OCc1ccccn1)c1cnn(Cc2ccc(OCC3(C(F)(F)F)OCCO3)cc2)c1 [compound 199] | 100 | 0 | 
CC#CCOC(=O)c1ccn(Cc2ccc(O/C=C(\OCC)C(F)(F)F)cc2)n1 [compound 293] |  |  | Test A disease control rating [1, 8]: 100%; Test B disease control rating [2, 8]: 0%
CCOC(=O)c1cnn(CCCc2ccc(O/C=C(\OCC)C(F)(F)F)cc2)c1 [compound 294] |  |  | Test A disease control rating [1, 8]: 100%; Test B disease control rating [2, 8]: 0%
O=C(OCc1ccc(F)c(F)c1)c1cnn(Cc2ccc(OCC(O)(O)C(F)(F)F)cc2)c1 [compound 50] | 54 | 91 | 
CCO/C(=C\Oc1cccc(Cn2cc(C(=O)OCC(F)F)cn2)c1)C(F)(F)F [compound 347] |  |  | Test A disease control rating [1, 7]: 100%; Test B disease control rating [2, 7]: 0%
CCOC(=O)c1cnn(Cc2ccc(O/C=C(\OS(=O)(=O)C(F)(F)F)C(F)(F)F)cc2)c1 [compound 422] |  |  | Test A disease control rating [1, 7]: 100%; Test B disease control rating [2, 7]: 84%
CCOC(=O)c1cnn(Cc2ccc(O/C=C(\OCCOC)C(F)(F)F)cc2)c1 [compound 54] | 0 | 0 | 
C=C(C)COC(=O)c1cnn(Cc2cccc(O/C=C(\OCC)C(F)(F)F)c2)c1 [compound 335] |  |  | Test A disease control rating [1, 8]: 100%; Test B disease control rating [2, 8]: 0%
CCOC(=O)c1cnn(CCc2ccc(OCC(O)(O)C(F)(F)F)cc2)c1 [compound 131] |  |  | Test A disease control rating [1, 5]: 99%; Test B disease control rating [2, 6]: 86%
CCOC(=O)c1cnn(C(C)c2ccc(OCC(O)(O)C(F)(F)F)cc2)c1 (stereo not shown) [compound 35] | 99 | 32 | 
CCOC(=O)c1cnn(Cc2cc(O/C=C(\OCC)C(F)(F)F)ccc2C)c1 [compound 451] |  |  | Test A disease control rating [1, 7]: 0%; Test B disease control rating [2, 7]: 0%
CCO/C(=C\Oc1cccc(Cn2cc(C(=O)OCC3CC3)cn2)c1)C(F)(F)F [compound 341] |  |  | Test A disease control rating [1, 8]: 100%; Test B disease control rating [2, 8]: 0%
CCOC(=O)c1ccn(Cc2ccc(F)c(O/C=C(\OCC)C(F)(F)F)c2)n1 [compound 420] |  |  | Test A disease control rating [1, 8]: 0%; Test B disease control rating [2, 8]: 0%
O=C(OCc1ccc(F)c(F)c1)c1cnn(Cc2ccc(OCC3(C(F)(F)F)OCCO3)cc2)c1 [compound 18] | 100 | 0 | 
CCOC(=O)c1csc(Cc2ccc(OCC3(C(F)(F)F)OCCO3)cc2)n1 [compound 137] | 79 | 0 | 
O=C(NCC(F)(F)F)c1cnc(Cc2ccc(OCC(O)(O)C(F)(F)F)cc2)s1 [compound 277] |  |  | Test A disease control rating [1, 8]: 50%; Test B disease control rating [2, 8]: 45%
CCOC(=COc1ccc(CN2CCC(C(=O)OC)CC2)cc1)C(F)(F)F [compound 309] |  |  | Test A disease control rating [1, 8]: 100%; Test B disease control rating [2, 8]: 0%
CCNC(=O)OCc1ccc(O/C=C(\OCC)C(F)(F)F)cc1 [compound 196] | 0 | 74 | 

Source: patent US20240122180A1, “FUNGICIDAL HALOMETHYL KETONES AND HYDRATES AND THEIR MIXTURES” (FMC Corporation, priority 2020, published 2024)
